Test results: patent publication US10226045B2, “Azoline compounds” (priority 2014, dated 2019)

Assays:
Assay type in all cases: in vivo
[1] = test system: Southern Armyworm (Spodoptera eridania); test: Southern armyworm, sprayed lima bean plants; conditions: 96 h, 1 ppm, larvae on sprayed lima bean plants, 4 days after treatment, in comparison with untreated controls, read-out: mortality
Procedure: B.10 Southern Armyworm (Spodoptera eridania)
The active compounds were formulated in cyclohexanone as a 10,000 ppm solution supplied in tubes. The tubes were inserted into an automated electrostatic sprayer equipped with an atomizing nozzle and they served as stock solutions for which lower dilutions were made in 50% acetone:50% water (v/v). A nonionic surfactant (Kinetic®) was included in the solution at a volume of 0.01% (v/v).
Lima bean plants (variety Sieva) were grown 2 plants to a pot and selected for treatment at the 1st true leaf stage. Test solutions were sprayed onto the foliage by an automated electrostatic plant sprayer equipped with an atomizing spray nozzle. The plants were dried in the sprayer fume hood and then removed from the sprayer. Each pot was placed into perforated plastic bags with a zip closure. About 10 to 11 armyworm larvae were placed into the bag and the bags zipped closed. Test plants were maintained in a growth room at about 25° C. and about 20-40% relative humidity for 4 days, avoiding direct exposure to fluorescent light (24 hour photoperiod) to prevent trapping of heat inside the bags. Mortality and reduced feeding were assessed 4 days after treatment, compared to untreated control plants.

[2] = test system: Brown Marmorated Stink Bug (Halyomorpha halys); test: Brown marmorated stink bug, sprayed peanuts and soybean seeds in cups; conditions: 120 h, 100 ppm, adults on peanuts and soybean seeds, after 5 days, in comparison with untreated controls, read-out: mortality
Procedure: B.13 Brown Marmorated Stink Bug (Halyomorpha halys)
The active compound was dissolved at the desired concentration in a mixture of 1:1 (vol:vol) distilled water: acetone. Surfactant (Kinetic HV) was added at a rate of 0.01% (vol/vol). The test solution was prepared at the day of use.
Row peanuts and soybean seeds were placed into microwavable plastic cups and inoculated with five adult stage H. halys. Using a hand atomizer, approximately 1 ml solution is sprayed into each cup, insects and food present. A water source was provided (cotton wick with water). Each treatment is replicated 4-fold. Assay arenas are kept at about 25° C. Percent mortality was recorded after 5 days.

[3] = test system: Rice Green Leafhopper (Nephotettix virescens); test: Rice green leafhopper, sprayed rice seedlings; conditions: 300 ppm, adults on sprayed rice seedlings, after 72 hours, in comparison with untreated controls, read-out: mortality
Procedure: B.8 Rice Green Leafhopper (Nephotettix virescens)
Rice seedlings were cleaned and washed 24 hours before spraying. The active compounds were formulated in 1:1 acetone:water (vol:vol), and 0.01% vol/vol surfactant (Kinetic HV) was added. Potted rice seedlings were sprayed with 5-6 ml test solution, air dried, covered with Mylar cages cages and inoculated with 10 adults. Treated rice plants were kept at about 28-29° C. and relative humidity of about 50-60%. Percent mortality was recorded after 72 hours.

[4] = test system: Red Spider Mite (Tetranychus kanzawai); test: Red spider mite, sprayed cowpea beans; conditions: 300 ppm, mites on sprayed cowpea beans, 72 hours after treatment, in comparison with untreated controls, read-out: mortality
Procedure: B.9 Red Spider Mite (Tetranychus kanzawai)
The active compound was dissolved at the desired concentration in a mixture of 1:1 (vol:vol) distilled water:acetone. Add surfactant (Kinetic HV) was added at a rate of 0.01% (vol/vol). The test solution was prepared at the day of use.
Potted cowpea beans of 4-5 days of age were cleaned with tap water and sprayed with 1-2 ml of the test solution using air driven hand atomizer. The treated plants were allowed to air dry and afterwards inoculated with 30 or more mites by clipping a cassava leaf section from rearing population. Treated plants were placed inside a holding room at about 25-27° C. and about 50-60% relative humidity. Percent mortality was assessed 72 hours after treatment.

O=C(NC1CS(=O)(=O)C1)c1ccc(C2=NCC(c3cc(Cl)c(F)c(Cl)c3)(C(F)(F)F)C2)c2c1CCC2 (stereo not shown) [Compound 2-3, 7-[3-(3,5-Dichloro-4-fluoro-phenyl)-3-(trifluoromethyl)-2,4-dihydropyrrol-5-yl]-N-(1,1-dioxothietan-3-yl)indane-4-carboxamide]
≥ 75%: mortality at 1 ppm [1] | mortality at 100 ppm [2] | mortality at 300 ppm [3] | mortality at 300 ppm [4]
